# Test results taken from paper PMC1197287 (PLoS Biology, 2005).
# Key:
# IBV M^pro = IBV M^pro (Avian infectious bronchitis virus, UniProt P0C6Y3); assay: biochemical
# MHV M^pro = MHV M^pro (Murine coronavirus, UniProt P0C6X9); assay: biochemical; conditions: pH 7.3, read-out: kobs/[I]
# TGEV M^pro = TGEV M^pro (Porcine transmissible gastroenteritis coronavirus, UniProt P0C6Y5); assay: biochemical
# CoV M^pros = format: biochemical
# FIPV M^pro = FIPV M^pro (Feline coronavirus, UniProt Q98VG9); assay: biochemical; conditions: pH 7.3, read-out: kobs/[I]
# HCoV-229E M^pro = target: T1, HCoV-229E M^pro (Human coronavirus 229E, UniProt P0C6X1); assay: biochemical
# T1 construct: HCoV-229E M^pro (15 mg/ml; two amino acids deleted at C-terminal); made in house
# MHV-A59 [1] = assay: organism not typed; format: cell-based; conditions: 14 h
# SARS-CoV M^pro = SARS-CoV M^pro (Severe acute respiratory syndrome coronavirus, UniProt P0C6X7); assay: biochemical
# MHV-A59 [2] = assay: MHV-A59 plaque-reduction assay in DBT cells; format: cell-based
# Description: Murine DBT cells (generously provided by Dr. Lishan Su of University of North Carolina) were cultured in Dulbecco's modified Eagle's medium supplemented with 10% fetal bovine serum (FBS) and antibiotics at 37 °C in 5% CO2.
# DBT cells were suspended in growth medium in triplicate wells in 6-well plates and preincubated with appropriate concentrations of the inhibitor. The next day, the medium was aspirated, and MHV-A59 was added to each well at a titer of 100 PFU/well. After incubation for 1 h, the virus inoculum was aspirated, and 2 ml of a media-agar overlay with appropriate concentrations of inhibitor was added to each well. The plates were further incubated for 24 h and stained with neutral red to visualize plaques.
# M^pro of HCoV-NL63 = M^pro of HCoV-NL63 (Human coronavirus NL63, UniProt P0C6X5); format: biochemical
# SARS-CoV = conditions: cell-based assays; data to be published elsewhere
# TGEV = assay: Cell-based assay of TGEV replication; conditions: cell-based assays; data to be published elsewhere
# M^pro of HCoV-HKU1 = M^pro of HCoV-HKU1 (Human coronavirus HKU1, UniProt P0C6X2); format: biochemical
# HCoV-229E = assay: microbe, parasite or virus in culture; format: cell-based; conditions: Human coronavirus 229E, MRC5, 14 h
# FIPV = assay: microbe, parasite or virus in culture; format: cell-based, FIPV (strain 79–1146); conditions: Alphacoronavirus 1, 14 h
# DBT cells = assay: Cytotoxicity assay (MTT); format: cell-based, murine; conditions: 500 μM, two days
# Description: DBT cells were suspended in growth medium in 96-well plates. The next day, appropriate concentrations of the inhibitor were added to the medium. Two days later, the relative numbers of surviving cells were measured by MTT (Sigma, St. Louis, Missouri, United States) assay in accordance with the manufacturer's instructions.
# [3] = design: method as in PMID 14638501, PMID 11796347; conditions: cited from earlier work
# rhinovirus = test system: rhinovirus; design: method as in PMID 14638501, PMID 11796347; conditions: intranasal suspension; cited from earlier work
# CoVs = conditions: cited from earlier work
# [4] = design: method as in PMID 14638501, PMID 11796347; conditions: in animals; cited from earlier work
# [5] = design: method as in PMID 14638501, PMID 11796347; conditions: cited from earlier work; remark: listed apart in the source
# T1 sequence (P0C6X1 2966-3265 limits assumed): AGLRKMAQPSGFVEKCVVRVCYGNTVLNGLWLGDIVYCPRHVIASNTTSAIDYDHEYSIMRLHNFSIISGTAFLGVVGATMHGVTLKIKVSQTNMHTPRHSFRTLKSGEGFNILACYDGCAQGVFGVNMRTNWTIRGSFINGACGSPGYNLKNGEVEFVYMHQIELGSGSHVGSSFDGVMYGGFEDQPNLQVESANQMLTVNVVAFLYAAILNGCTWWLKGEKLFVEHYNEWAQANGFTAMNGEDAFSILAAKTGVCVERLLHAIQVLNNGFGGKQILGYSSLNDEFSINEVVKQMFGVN
# TGEV M^pro, sequence (P0C6Y5 2879-3180): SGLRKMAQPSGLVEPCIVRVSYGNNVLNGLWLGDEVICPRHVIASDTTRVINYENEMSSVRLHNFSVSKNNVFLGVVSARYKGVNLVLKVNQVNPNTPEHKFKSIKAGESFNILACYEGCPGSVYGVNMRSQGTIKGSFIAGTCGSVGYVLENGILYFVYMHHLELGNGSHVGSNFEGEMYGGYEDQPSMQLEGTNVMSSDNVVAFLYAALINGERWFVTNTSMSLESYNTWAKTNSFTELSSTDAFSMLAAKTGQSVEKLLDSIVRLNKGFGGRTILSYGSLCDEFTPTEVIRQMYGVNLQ
# IBV M^pro, sequence (P0C6Y3 2782-3088): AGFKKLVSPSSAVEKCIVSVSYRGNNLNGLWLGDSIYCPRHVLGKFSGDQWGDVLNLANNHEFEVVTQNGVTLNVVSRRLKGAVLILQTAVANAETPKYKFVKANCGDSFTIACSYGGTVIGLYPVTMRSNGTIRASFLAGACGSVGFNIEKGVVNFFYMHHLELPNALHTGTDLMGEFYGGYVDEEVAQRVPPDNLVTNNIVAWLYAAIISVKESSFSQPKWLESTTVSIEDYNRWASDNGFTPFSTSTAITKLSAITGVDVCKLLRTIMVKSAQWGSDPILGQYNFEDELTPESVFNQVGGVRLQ
# MHV M^pro, sequence (P0C6X9 3334-3635): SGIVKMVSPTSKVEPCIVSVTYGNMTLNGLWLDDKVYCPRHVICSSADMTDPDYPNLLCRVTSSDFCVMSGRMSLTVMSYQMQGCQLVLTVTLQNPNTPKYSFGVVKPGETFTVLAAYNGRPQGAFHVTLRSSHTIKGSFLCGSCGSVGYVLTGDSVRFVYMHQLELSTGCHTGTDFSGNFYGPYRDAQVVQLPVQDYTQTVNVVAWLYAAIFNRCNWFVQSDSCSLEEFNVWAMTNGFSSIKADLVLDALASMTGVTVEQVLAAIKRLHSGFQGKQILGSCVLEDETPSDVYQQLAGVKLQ
# FIPV M^pro, sequence (Q98VG9 2904-3205): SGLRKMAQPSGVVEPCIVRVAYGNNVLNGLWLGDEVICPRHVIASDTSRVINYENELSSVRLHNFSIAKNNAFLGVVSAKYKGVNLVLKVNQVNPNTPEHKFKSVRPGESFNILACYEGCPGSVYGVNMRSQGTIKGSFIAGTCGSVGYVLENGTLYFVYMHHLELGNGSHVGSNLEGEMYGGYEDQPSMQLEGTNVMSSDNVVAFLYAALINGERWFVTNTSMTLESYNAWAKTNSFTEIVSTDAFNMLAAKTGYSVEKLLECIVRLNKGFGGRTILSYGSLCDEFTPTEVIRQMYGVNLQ
# M^pro of HCoV-NL63, sequence (P0C6X5 2940-3242): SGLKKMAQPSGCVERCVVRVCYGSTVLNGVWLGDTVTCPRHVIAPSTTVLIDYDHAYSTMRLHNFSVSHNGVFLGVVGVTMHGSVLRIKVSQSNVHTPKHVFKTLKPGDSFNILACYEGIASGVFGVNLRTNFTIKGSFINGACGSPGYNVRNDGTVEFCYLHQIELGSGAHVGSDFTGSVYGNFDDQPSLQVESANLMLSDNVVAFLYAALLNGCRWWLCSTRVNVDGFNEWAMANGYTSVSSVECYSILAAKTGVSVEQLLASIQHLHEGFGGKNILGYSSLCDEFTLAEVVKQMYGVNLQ
# M^pro of HCoV-HKU1, sequence (P0C6X2 3335-3637): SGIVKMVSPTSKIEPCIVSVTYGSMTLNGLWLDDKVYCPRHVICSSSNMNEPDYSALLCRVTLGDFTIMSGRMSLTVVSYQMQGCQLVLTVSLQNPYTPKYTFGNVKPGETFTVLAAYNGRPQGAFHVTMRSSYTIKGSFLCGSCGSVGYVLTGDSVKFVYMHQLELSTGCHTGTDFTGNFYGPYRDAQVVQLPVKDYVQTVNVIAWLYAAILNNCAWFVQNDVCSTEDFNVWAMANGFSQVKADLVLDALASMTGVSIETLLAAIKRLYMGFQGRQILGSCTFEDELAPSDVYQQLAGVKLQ
compound,measurement,setting,value
CCOC(=O)/C=C/[C@H](C[C@@H]1CCNC1=O)NC(=O)[C@H](CC(C)C)NC(=O)[C@@H](NC(=O)[C@H](C)NC(=O)c1cc(C)on1)C(C)C [N1],Ki,IBV M^pro,3.9 ± 0.9 µM
same,k3,"IBV M^pro; IBV M^pro, inactivation rate constant",14.5 ± 1.2 × 10^−3s^−1
same,kinact/KI,MHV M^pro,2800 M⁻¹ s⁻¹
same,Ki,TGEV M^pro,3.2 ± 0.2 µM
same,k3,TGEV M^pro,50 ± 3 × 10^−3s^−1
same,in vitro inactivation of all CoV M^pros tested,CoV M^pros,fast in vitro inactivation
same,"k3, range over CoV M^pros",CoV M^pros,4.1–50 × 10^−3s^−1
same,Ki,"CoV M^pros; read-out: Ki, range over CoV M^pros",1.11 to 10.7 µM
same,kinact/KI,FIPV M^pro,24000 M⁻¹ s⁻¹
same,Ki,HCoV-229E M^pro,1.11 ± 0.09 µM
same,k3,HCoV-229E M^pro,14.8 ± 0.7 × 10^−3s^−1
Cc1cc(C(=O)N[C@@H](C)C(=O)N[C@H](C(=O)N[C@@H](CC(C)C)C(=O)N[C@H](/C=C/C(=O)OCc2ccccc2)C[C@@H]2CCNC2=O)C(C)C)no1 [N3],kinact/KI,"IBV M^pro; pH 7.3, read-out: kobs/[I]",7900 M⁻¹ s⁻¹
same,IC50,MHV-A59 [1],2.7 µM
same,kinact/KI,MHV M^pro,4800 M⁻¹ s⁻¹
same,Ki,SARS-CoV M^pro,9 ± 0.8 µM
same,k3,SARS-CoV M^pro,3.1 ± 0.5 × 10^−3s^−1
same,protection of DBT cells from MHV infection,MHV-A59 [2]; 8 μM N3,sufficiently protected
same,EC50,"MHV-A59 [2]; DBT cells, low-multiplicity (MOI = 0.01)",3.4 µM
same,inhibition on M^pro of HCoV-NL63,M^pro of HCoV-NL63,potent inhibition
same,inhibition of replication of SARS-CoV,SARS-CoV,strongly inhibit
same,inhibition of replication of TGEV,TGEV,strongly inhibit
same,kinact/KI,"TGEV M^pro; pH 7.3, read-out: kobs/[I]",13000 M⁻¹ s⁻¹
same,in vitro inactivation of all CoV M^pros tested,CoV M^pros,fast in vitro inactivation
same,inhibition on M^pro of HCoV-HKU1,M^pro of HCoV-HKU1,potent inhibition
same,IC50,HCoV-229E,4 µM
same,IC50,FIPV,8.8 µM
same,inhibition of cell growth,DBT cells,28.3%
same,kinact/KI,FIPV M^pro,47000 M⁻¹ s⁻¹
same,Ki,HCoV-229E M^pro,1.67 ± 0.18 µM
same,k3,HCoV-229E M^pro,18.0 ± 1.1 × 10^−3s^−1
"CCOC(=O)/C=C/[C@H](C[C@@H]1CCNC1=O)NC(=O)[C@@H](CC(=O)[C@@H](NC(=O)c1cc(C)on1)C(C)C)Cc1ccc(F)cc1 [Ruprintrivir, ruprintrivir]",most common adverse effects,[3],blood-tinged mucus and nasal passage irritation
same,tolerability,[3],well tolerated
same,effect of prophylaxis in Phase II studies,rhinovirus,reduced the proportion of subjects with positive viral cultures and viral titers
same,inhibition of CoVs,CoVs,did not show inhibition
same,oral bioavailability,[4],low
same,aqueous solubility,[5],poor
